Test results reported in patent US7553837B2, “Phenylazole compounds production process and antioxidants” (Nippon Soda Co., Ltd., priority 2003, dated 2009).
pIC50: −log10 of the molar value.

Assays:
5-lipoxygenase (5-LO) = biological target: T1, 5-lipoxygenase (5-LO) (Homo sapiens, UniProt P09917); assay: 5-lipoxygenase (5-LO) inhibitory activity, leukotriene B4 production in human peripheral blood mononuclear cells; format: cell-based; details: human peripheral blood mononuclear cells, A23187, leukotriene B4 production
T1 construct: human peripheral blood mononuclear cells and each of test compounds dissolved in DMSO (final concentration: 1%) were preincubated; endogenous in cells; host or cells: human peripheral blood mononuclear cells
T1 sequence (P09917 1-674): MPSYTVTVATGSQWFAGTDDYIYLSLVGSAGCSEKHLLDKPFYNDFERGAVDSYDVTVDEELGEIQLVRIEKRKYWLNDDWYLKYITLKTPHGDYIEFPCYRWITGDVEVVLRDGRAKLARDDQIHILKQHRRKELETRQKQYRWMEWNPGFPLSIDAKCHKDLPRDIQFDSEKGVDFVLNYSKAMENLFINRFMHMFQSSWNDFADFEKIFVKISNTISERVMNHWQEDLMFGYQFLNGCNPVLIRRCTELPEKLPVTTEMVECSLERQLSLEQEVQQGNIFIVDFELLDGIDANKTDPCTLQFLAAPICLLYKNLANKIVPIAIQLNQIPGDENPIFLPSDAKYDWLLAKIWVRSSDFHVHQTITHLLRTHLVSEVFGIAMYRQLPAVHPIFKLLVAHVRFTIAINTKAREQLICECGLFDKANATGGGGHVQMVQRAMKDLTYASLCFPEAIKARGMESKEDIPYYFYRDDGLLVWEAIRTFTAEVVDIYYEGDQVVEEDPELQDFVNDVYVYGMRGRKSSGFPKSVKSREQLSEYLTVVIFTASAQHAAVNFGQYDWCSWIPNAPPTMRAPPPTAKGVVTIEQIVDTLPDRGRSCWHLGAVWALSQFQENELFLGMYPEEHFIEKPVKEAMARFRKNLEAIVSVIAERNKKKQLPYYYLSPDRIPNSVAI
Method: A 5-LO inhibitory activity was measured by a partially modified process of a process of Carter et al. (Carter G. W, et al, J. Pharmacol. Exp. Ther.: 256, 929-37, 1991). That is, human peripheral blood mononuclear cells and each of test compounds dissolved in DMSO (final concentration: 1%) were preincubated (37° C., 15 minutes) in a Hanks' balanced salt solution and 30 μM A23187 was further added, followed by incubation (37° C., 30 minutes). The amount of leukotriene B4 produced as a result of incubation was determined by enzyme immunoassay and a 50% production inhibitory concentration (μM) against 5-LO of each test compound was calculated.

[1] = tested on: 66 kDa protein in the retina; assay: 66 kDa protein increase inhibitory action in retina of rats irradiated with UV-A; format: in vivo; details: Wistar male rats, 10 mg/kg, p.o., UV-A irradiation, retina 48 hours after irradiation, N = 3
Method: An action for inhibition of an increase in 66 kDa protein in the retina of rats irradiated with ultraviolet light of the compounds of the present invention was evaluated. To Wistar male rats (7 to 9 weeks old), a solution or suspension prepared by dissolving or suspending each of test compounds in a 0.1N hydrochloric acid solution or a 1% poly oxy ethylene hydrogenated castor oil (NIKKOL HCO-60) solution was orally administered. After 30 minutes, right eye was irradiated with UV-A (12 mW/cm^2) using a UV spot light source for 30 minutes. Left eye was not irradiated (control). During irradiation with UV-A and 2 hours before and after irradiation, rats were bred under an atmosphere where room light is screened. 48 hours after irradiation, the retina was separated. In the same manner as in Example 21, a 5% homogenate solution was prepared. Regarding a change in retinal protein, SDS-polyacrylamide electrophoresis was carried out according to the process of Lammli (Nature, […], 680-685, 1970). […] Then, the specimen was decolored with ethanol:acetic acid:water (25:8:65) and the 66 kDa protein after migration was analyzed by a densitograph. The amount of the protein in the specimen was determined by a Lowry process.

[2] = tested on: abnormal behavior and fatality due to ferrous chloride; assay: In vivo antioxidative activity: ferrous chloride administration into spinal subarachnoid cavity of mice; set-up: species or system Slc:ICR male mice; details: score after 60 minutes
Method: An in vivo antioxidative activity of the compounds of the present invention was evaluated from an abnormal behavior due to administration of ferrous chloride into spinal subarachnoid cavity of mice as well as an inhibitory effect of a fatality rate according to the process described in J. Med. Chem., 1997, Vol. 40, p. 559-573. Using Slc:ICR male mice (one group: 3 to 7 mice, 5 weeks old) (available from Nippon SLC Co., Ltd.), 5 μl of a 50 mM ferrous chloride physiological saline solution was administered to the spinal canal through the space between the fifth lumbar vertebrae and the sixth lumbar vertebrae. 20 to 60 minutes after administration of ferrous chloride, symptoms were observed and a score after 60 minutes was determined from symptoms shown in Table 32. […] As is apparent from the results, the compounds of the present invention have an in vivo antioxidation action.

SMILES: Cc1c(C)c2c(c(C)c1N)CC(C)(CN1CCN(c3cccc(-n4ccnc4)c3)CC1)O2 (stereo not shown) [Compound B-1-18]
- pIC50 (5-lipoxygenase (5-LO)): 5.59
- 66 kDa protein ratio in retina of rats irradiated with ultraviolet light (right eye: irradiated/left eye: non-irradiated) [1]: 1.50
- In vivo antioxidation action 50% inhibitory concentration (ID50), Intraperitoneal administration ([2]; intraperitoneal administration 30 minutes before ferrous chloride into spinal canal): 4.7 mg/kg
- In vivo antioxidation action 50% inhibitory concentration (ID50), Oral administration ([2]; oral administration 30 minutes before ferrous chloride into spinal canal): 7.4 mg/kg
